Source: ChEMBL document CHEMBL5661979, “Pharmacological inhibition of BMK1 suppresses tumor growth through promyelocytic leukemia protein” (Cancer Cell, 2010)

Columns and labels:
Assay type in all cases: subcellular
[1] = target: T1, Serine/threonine-protein kinase Sgk3 (Homo sapiens, UniProt Q96BR1); experiment: Inhibition of SGK3 in human HeLa cells lysate pre incubated for 15 mins followed by ADP acyl phosphate probe addition and measured after 10 mins by LC-MS/MS analysis
T1 sequence (Q96BR1 whole entry): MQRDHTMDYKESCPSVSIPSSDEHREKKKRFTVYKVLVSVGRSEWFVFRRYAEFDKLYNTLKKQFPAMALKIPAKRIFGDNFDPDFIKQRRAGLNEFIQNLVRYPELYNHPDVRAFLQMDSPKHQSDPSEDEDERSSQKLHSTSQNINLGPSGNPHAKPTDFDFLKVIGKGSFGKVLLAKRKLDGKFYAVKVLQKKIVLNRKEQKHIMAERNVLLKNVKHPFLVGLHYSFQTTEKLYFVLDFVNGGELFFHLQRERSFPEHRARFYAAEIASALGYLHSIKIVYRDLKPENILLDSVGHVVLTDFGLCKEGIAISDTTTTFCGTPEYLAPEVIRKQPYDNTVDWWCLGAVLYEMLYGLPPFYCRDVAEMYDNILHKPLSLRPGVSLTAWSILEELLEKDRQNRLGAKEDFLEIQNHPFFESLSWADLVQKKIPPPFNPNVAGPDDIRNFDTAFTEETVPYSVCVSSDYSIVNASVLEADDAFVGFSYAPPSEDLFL

[2] = target: STE20-like serine/threonine-protein kinase (Homo sapiens, UniProt Q9H2G2); experiment: Inhibition of SLK in human HeLa cells lysate at 2 uM pre incubated for 15 mins followed by ATP acyl phosphate probe addition and measured after 10 mins by LC-MS/MS analysis relative to control; settings: time 25.0 min
[3] = target: T2, Dual specificity mitogen-activated protein kinase kinase 4 (Homo sapiens) (UniProt P45985); experiment: Inhibition of MAP2K4 in human HeLa cells lysate at 50 uM pre incubated for 15 mins followed by ADP acyl phosphate probe addition and measured after 10 mins by LC-MS/MS analysis relative to control; settings: time 25.0 min
T2 sequence (whole entry): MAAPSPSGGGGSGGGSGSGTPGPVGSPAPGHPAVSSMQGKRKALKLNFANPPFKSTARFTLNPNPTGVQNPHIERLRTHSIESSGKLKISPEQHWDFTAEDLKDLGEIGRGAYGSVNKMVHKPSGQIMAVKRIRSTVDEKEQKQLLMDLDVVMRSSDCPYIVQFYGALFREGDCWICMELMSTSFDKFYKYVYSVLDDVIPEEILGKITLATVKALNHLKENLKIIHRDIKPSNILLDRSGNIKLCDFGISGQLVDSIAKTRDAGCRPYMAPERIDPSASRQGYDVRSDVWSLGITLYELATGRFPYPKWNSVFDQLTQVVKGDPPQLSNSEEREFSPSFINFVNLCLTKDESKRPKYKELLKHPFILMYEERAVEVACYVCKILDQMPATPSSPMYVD

[4] = target: Mitogen-activated protein kinase kinase kinase 20 (Homo sapiens, UniProt Q9NYL2); experiment: Inhibition of ZAK in human HeLa cells lysate pre incubated for 15 mins followed by ATP acyl phosphate probe addition and measured after 10 mins by LC-MS/MS analysis
[5] = target: Ribosomal protein S6 kinase alpha-1 (Homo sapiens, UniProt Q15418); experiment: Inhibition of RSK1 domain 2 K1 site in human HeLa cells lysate at 2 uM pre incubated for 15 mins followed by ADP acyl phosphate probe addition and measured after 10 mins by LC-MS/MS analysis relative to control; settings: time 25.0 min
[6] = target: Macrophage-stimulating protein receptor (Homo sapiens, UniProt Q04912); experiment: Inhibition of RON in human HeLa cells lysate at 10 uM pre incubated for 15 mins followed by ADP acyl phosphate probe addition and measured after 10 mins by LC-MS/MS analysis relative to control; settings: time 25.0 min
[7] = target: T3, Phosphatidylinositol 5-phosphate 4-kinase type-2 gamma (Homo sapiens) (UniProt Q8TBX8); experiment: Inhibition of PIP5K2C LIP2 site in human HeLa cells lysate at 50 uM pre incubated for 15 mins followed by ATP acyl phosphate probe addition and measured after 10 mins by LC-MS/MS analysis relative to control; settings: time 25.0 min
T3 sequence (whole entry): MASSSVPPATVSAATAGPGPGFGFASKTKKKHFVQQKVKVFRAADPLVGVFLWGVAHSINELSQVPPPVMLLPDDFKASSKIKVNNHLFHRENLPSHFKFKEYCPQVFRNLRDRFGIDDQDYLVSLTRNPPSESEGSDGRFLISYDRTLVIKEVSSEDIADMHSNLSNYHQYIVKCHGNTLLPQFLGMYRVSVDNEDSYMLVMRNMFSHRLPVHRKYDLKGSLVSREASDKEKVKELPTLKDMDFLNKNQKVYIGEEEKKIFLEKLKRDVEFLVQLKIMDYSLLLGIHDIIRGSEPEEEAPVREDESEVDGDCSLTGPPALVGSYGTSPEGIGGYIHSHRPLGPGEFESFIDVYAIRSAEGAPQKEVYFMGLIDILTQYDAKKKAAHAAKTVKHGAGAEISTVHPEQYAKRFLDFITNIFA

Sequence of Macrophage-stimulating protein receptor (Q04912 25-304 limits assumed): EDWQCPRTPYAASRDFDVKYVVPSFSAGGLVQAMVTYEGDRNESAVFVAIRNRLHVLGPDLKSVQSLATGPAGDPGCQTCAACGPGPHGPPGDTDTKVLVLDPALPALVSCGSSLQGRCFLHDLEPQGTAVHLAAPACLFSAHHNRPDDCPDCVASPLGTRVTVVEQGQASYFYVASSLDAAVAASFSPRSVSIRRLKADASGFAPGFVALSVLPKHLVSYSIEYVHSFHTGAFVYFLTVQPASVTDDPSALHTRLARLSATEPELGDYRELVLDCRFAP
Sequence of Macrophage-stimulating protein receptor (Q04912 310-1400 limits assumed): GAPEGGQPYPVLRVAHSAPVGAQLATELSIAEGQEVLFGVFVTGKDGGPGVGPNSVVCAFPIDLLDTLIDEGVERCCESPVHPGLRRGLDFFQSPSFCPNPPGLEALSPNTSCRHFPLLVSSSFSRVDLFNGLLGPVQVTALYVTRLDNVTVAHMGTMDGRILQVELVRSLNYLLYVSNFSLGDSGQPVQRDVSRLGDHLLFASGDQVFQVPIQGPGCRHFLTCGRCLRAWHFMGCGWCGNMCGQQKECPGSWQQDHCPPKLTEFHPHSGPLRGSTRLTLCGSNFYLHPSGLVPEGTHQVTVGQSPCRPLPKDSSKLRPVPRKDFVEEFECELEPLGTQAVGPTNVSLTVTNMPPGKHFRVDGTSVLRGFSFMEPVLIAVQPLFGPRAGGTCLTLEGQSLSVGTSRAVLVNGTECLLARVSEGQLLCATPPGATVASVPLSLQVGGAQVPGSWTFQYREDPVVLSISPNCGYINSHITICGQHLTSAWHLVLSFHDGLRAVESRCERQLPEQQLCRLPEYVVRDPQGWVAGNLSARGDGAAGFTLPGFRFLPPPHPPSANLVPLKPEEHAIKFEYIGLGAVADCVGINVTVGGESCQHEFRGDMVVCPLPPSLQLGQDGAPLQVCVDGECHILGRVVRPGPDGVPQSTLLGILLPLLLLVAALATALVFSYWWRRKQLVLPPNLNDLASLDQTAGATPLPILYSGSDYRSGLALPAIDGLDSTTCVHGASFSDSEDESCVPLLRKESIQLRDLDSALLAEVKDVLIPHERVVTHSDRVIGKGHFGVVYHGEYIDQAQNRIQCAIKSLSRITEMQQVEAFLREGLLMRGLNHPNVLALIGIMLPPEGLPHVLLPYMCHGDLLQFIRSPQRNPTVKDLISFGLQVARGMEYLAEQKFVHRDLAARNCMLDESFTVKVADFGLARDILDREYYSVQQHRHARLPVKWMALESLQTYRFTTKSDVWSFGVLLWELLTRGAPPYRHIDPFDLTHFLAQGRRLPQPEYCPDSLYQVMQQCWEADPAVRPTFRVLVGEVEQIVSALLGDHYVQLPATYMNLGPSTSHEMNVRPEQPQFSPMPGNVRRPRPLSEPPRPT
Sequence of STE20-like serine/threonine-protein kinase (Q9H2G2 whole entry, looked up): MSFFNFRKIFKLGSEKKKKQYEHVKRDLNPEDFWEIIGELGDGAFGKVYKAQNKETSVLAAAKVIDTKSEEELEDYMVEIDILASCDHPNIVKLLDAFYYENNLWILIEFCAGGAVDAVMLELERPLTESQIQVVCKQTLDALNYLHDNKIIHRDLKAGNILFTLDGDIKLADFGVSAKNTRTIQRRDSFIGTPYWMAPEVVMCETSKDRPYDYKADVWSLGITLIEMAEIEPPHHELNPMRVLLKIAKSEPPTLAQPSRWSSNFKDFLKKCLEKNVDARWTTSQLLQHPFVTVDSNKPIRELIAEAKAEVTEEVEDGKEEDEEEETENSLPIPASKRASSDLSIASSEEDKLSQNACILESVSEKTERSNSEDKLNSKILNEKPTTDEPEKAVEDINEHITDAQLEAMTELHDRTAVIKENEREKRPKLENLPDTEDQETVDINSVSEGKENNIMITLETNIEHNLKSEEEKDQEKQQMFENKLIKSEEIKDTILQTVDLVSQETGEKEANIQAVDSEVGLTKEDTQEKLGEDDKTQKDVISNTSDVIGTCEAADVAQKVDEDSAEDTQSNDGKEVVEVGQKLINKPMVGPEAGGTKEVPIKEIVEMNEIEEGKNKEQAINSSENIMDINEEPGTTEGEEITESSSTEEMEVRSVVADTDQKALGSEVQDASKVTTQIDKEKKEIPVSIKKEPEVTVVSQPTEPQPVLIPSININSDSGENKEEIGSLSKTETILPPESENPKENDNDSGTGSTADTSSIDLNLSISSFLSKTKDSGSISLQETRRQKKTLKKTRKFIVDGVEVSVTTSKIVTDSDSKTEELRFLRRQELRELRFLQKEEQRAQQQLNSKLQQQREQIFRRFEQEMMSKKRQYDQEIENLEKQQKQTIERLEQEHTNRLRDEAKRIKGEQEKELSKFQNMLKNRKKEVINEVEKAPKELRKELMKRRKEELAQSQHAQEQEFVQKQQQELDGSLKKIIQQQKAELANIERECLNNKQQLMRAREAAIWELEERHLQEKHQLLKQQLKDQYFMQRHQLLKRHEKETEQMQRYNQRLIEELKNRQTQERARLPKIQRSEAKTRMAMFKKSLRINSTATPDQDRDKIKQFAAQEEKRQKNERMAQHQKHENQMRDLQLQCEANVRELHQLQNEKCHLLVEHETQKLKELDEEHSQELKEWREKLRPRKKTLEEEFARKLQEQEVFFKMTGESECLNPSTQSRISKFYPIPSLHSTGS
Sequence of Ribosomal protein S6 kinase alpha-1 (Q15418 whole entry, the tested form may be a part): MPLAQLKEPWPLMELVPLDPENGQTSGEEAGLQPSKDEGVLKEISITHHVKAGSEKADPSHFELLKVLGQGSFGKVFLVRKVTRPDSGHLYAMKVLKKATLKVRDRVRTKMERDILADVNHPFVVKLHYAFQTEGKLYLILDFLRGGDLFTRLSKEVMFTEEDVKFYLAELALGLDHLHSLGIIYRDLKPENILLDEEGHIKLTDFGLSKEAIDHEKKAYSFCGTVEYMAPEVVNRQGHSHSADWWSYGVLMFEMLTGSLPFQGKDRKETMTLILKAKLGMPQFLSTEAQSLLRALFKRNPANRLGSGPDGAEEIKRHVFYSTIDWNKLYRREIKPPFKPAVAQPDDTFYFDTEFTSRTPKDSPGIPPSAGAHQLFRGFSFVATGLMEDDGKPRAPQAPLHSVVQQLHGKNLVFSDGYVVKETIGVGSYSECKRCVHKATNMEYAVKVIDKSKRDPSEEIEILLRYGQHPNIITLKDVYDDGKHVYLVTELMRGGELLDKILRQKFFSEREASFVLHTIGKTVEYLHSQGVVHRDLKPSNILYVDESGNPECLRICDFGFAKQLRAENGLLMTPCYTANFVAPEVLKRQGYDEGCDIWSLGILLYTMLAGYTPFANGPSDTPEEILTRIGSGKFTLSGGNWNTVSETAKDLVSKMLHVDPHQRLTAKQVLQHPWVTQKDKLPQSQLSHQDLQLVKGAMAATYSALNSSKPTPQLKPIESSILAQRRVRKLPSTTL
Sequence of Mitogen-activated protein kinase kinase kinase 20 (Q9NYL2 whole entry, the tested form may be a part): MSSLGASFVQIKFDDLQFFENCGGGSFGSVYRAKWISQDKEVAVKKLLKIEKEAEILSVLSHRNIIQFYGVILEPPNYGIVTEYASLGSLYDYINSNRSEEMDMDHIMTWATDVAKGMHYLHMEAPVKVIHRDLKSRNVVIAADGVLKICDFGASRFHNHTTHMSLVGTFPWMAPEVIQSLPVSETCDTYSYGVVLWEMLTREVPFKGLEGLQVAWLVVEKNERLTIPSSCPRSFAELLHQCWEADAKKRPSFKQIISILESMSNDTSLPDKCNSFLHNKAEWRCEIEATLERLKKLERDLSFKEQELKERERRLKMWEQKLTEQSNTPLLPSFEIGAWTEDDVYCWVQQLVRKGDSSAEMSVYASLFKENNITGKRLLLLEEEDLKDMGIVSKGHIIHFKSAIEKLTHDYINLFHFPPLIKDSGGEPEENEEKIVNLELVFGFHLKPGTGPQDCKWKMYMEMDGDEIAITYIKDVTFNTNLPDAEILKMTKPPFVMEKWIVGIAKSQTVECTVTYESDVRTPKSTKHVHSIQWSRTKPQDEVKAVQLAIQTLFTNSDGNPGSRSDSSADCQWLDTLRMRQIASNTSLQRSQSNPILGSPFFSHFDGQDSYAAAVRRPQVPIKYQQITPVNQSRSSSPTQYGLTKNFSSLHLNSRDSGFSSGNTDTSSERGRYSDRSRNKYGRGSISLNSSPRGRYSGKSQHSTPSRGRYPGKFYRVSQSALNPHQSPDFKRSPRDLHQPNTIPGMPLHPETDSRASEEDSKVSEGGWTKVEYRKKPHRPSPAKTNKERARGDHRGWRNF

**Q.** With `CCOc1cc(N2CCC(O)CC2)ccc1Nc1ncc2c(n1)N(C)c1ccccc1C(=O)N2C` as the compound, how does the IC50 [1] read?
**A.** > 50 µM

**Q.** What about the inhibition [2] of the same compound?
**A.** -6.5%

**Q.** And the inhibition [3]?
**A.** 3.1%

**Q.** And the IC50 [4]?
**A.** > 50 µM

**Q.** And the inhibition [5]?
**A.** 18%

**Q.** What about the inhibition [6] of the same compound?
**A.** 24.9%

**Q.** What about the inhibition [7] of the same compound?
**A.** 12.7%
